According to patent US20110082130A1 (LIGAND PHARMACEUTICALS, INC., priority 2006, published 2011):

target: T1, chimeric human H3 receptor (Homo sapiens, UniProt Q9Y5N1); test: Chimeric human H3 receptor GTP binding assay (agonist-stimulated GTP-gamma35S binding, Example 7); assay type: biochemical; conditions: Table I; P2 membranes of Sf9 cells, 1 μM histamine as agonist, Ki from IC50 by Cheng-Prusoff
T1 construct: made in house; host or cells: Sf9 insect cells (baculovirus); P2 membrane preparation
T1 sequence (Q9Y5N1 with tags, fused parts or gaps): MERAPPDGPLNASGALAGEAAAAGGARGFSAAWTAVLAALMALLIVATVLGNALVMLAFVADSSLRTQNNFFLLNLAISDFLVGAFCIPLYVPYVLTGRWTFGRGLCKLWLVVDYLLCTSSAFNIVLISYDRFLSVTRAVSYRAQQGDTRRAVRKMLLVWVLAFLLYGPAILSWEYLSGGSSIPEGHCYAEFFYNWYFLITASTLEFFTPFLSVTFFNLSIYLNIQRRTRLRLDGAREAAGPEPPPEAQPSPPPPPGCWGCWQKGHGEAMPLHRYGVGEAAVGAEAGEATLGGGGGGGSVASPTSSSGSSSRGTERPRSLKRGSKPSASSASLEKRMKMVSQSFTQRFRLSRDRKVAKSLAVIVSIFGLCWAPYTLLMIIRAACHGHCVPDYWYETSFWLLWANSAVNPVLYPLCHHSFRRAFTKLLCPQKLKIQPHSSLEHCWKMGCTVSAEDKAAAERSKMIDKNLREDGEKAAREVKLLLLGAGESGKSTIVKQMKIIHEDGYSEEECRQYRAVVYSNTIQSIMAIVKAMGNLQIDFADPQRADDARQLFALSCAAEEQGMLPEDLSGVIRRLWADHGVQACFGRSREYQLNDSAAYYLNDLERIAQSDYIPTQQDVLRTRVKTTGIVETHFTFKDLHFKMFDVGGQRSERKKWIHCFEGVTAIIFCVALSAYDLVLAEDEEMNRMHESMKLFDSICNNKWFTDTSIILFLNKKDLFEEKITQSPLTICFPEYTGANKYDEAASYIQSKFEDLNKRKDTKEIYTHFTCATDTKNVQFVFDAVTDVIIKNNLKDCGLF
From the text: This Example illustrates a representative assay for evaluating agonist-stimulated GTP-gamma^35S binding (“GTP binding”) activity. […] This agonist-stimulated GTP binding activity can also be used to detect partial agonism mediated by antagonist compounds. A compound analyzed in this assay is referred to herein as a “test compound.”
Four independent baculoviral stocks (one directing the expression of the chimeric human H3 receptor and three directing the expression of each of the three subunits of a heterotrimeric G-protein) are used to infect a culture of Sf9 cells as described above. P2 membranes are prepared as described above, and agonist-stimulated GTP binding on the P2 membranes is assessed using histamine (Sigma Chemical Co., St. Louis, Mo.) as agonist in order to ascertain that the receptor/G-protein-alpha-beta-gamma combination(s) yield a functional response as measured by GTP binding. P2 membranes are resuspended by Dounce homogenization (tight pestle) in GTP binding assay buffer (50 mM Tris pH 7.4, 120 mM NaCl, 5 mM MgCl2, 2 mM EGTA, 1 mg/ml BSA, 0.2 mg/ml bacitracin, 0.02 mg/ml aprotinin, 0.01 mg/ml saponin, 10 μM GDP) and added to assay tubes at a concentration of 35 μg protein/reaction tube. After adding increasing doses of histamine at concentrations ranging from 10^−12 M to 10^−5 M, reactions are initiated by the addition of […] GTP-gamma^35S (PERKIN ELMER; Boston, Mass.) with a final assay volume of 0.20 ml. In competition experiments, non-radiolabeled test compounds are added to separate reactions at concentrations ranging from 10^−10 M to 10^−6 M along with 1 μM histamine to yield a final volume of 0.20 ml.
Neutral antagonists are antagonists that are substantially free of inherent agonist activity, and include those test compounds that reduce the histamine-stimulated GTP binding activity towards, but not below, baseline levels. In contrast, in the absence of added histamine, inverse agonists reduce the GTP binding activity of the receptor-containing membranes below baseline.
After a 60-min incubation at room temperature, reactions are terminated by vacuum filtration over WHATMAN GF/C filters (pre-soaked in wash buffer, 0.1% BSA) followed by washing with ice-cold wash buffer (50 mM Tris pH 7.4, 120 mM NaCl). The amount of receptor-bound (and thereby membrane-bound) GTP-gamma^35S is determined by measuring the filter-bound radioactivity, preferably by liquid scintillation spectrometry of the washed filters. Non-specific binding is determined in parallel assays including 10 μM unlabeled GTP-gammaS and typically represents less than 5 percent of total binding. Data is expressed as percent above basal (baseline). The results of GTP binding experiments are analyzed using SIGMAPLOT software (SPSS Inc., Chicago, Ill.). IC50 values are calculated by non-linear regression analysis of dose-response curves using Kaleidograph (Synergy Software, Reading, Pa.).
Alternatively the data is analyzed as follows. First, the average bound radioactivity from negative control wells (no agonist) is subtracted from the bound radioactivity detected for each of the other experimental wells. Second, average bound radioactivity is calculated for the positive control wells (agonist wells). Then, percent inhibition for each compound tested is calculated using the equation:
Calculated IC50 values are converted to K1 values by the Cheng-Prusoff correction (Cheng and Prusoff (1973) Biochem. Pharmacol. 22(23):3099-3108). Accordingly, the following equation: Ki=IC50/(1+[L]/EC50) is used, where [L] is the histamine concentration in the GTP binding assay, and EC50 is the concentration of histamine producing a 50% response, as determined by a dose-response analysis using concentrations of histamine ranging from 10^−10 M to 10^−6M. […]

| Structure (SMILES) | Ki [nM] |
| --- | --- |
| O=C(CN1CCn2c(Br)cnc2C1)N1CCN(C2CCC2)CC1 [Compound 81, 3-bromo-7-[2-(4-cyclobutylpiperazin-1-yl)-2-oxoethyl]-5,6,7,8-tetrahydroimidazo[1,2-a]pyrazine] | < 1000 |
| CS(=O)(=O)c1cccc(-c2ccc3c(c2)CCN(CC(=O)N2CCN(C4CCC4)CC2)C3)c1 [Compound 74, 2-[2-(4-cyclobutylpiperazin-1-yl)-2-oxoethyl]-6-[3-(methylsulfonyl)phenyl]-1,2,3,4-tetrahydroisoquinoline] | < 1000 |

same assay, conditions: Table II "Ki", symbol *; assay of Example 7

| Structure (SMILES) | Ki [nM] |
| --- | --- |
| COCCC1CCN(c2ccc3c(n2)CCN(CC(=O)N2CCN(C4CCC4)CC2)C3)CC1 [Compound 672, 6-[2-(4-cyclobutylpiperazin-1-yl)-2-oxoethyl]-2-[4-(2-methoxyethyl)piperidin-1-yl]-5,6,7,8-tetrahydro-1,6-naphthyridine] | < 1000 |
| COc1cc(-c2ccc3c(c2)CCN(CC(=O)N2CCN(C4CCC4)CC2)C3)nc(OC)n1 [Compound 635, 2-[2-(4-cyclobutylpiperazin-1-yl)-2-oxoethyl]-6-(2,6-dimethoxypyrimidin-4-yl)-1,2,3,4-tetrahydroisoquinoline] | < 1000 |
| CC(C)Oc1cccc(-c2ccc3c(c2)CCN(CC(=O)N2CCN(C4CCC4)CC2)C3)c1 [Compound 513, 2-[2-(4-cyclobutylpiperazin-1-yl)-2-oxoethyl]-6-(3-isopropoxyphenyl)-1,2,3,4-tetrahydroisoquinoline] | < 1000 |
| O=C(CN1CCc2cc(-c3nccc4ccccc34)ccc2C1)N1CCN(C2CCC2)CC1 [Compound 637, 2′-[2-(4-cyclobutylpiperazin-1-yl)-2-oxoethyl]-1′,2′,3′,4′-tetrahydro-1,6′-biisoquinoline] | < 1000 |
| CCCOc1ccc(-c2ccc3c(c2)CCN(CC(=O)N2CCN(C4CCC4)CC2)C3)cc1 [Compound 544, 2-[2-(4-cyclobutylpiperazin-1-yl)-2-oxoethyl]-6-(4-propoxyphenyl)-1,2,3,4-tetrahydroisoquinoline] | < 1000 |
| CCCOc1ccc(-c2ccc3c(c2)CCN(CC(=O)N2CCN(C4CCCC4)CC2)C3)cc1 [Compound 545, 2-[2-(4-cyclopentylpiperazin-1-yl)-2-oxoethyl]-6-(4-propoxyphenyl)-1,2,3,4-tetrahydroisoquinoline] | < 1000 |
| CN(C)CCc1ccccc1-c1ccc2c(c1)CCN(CC(=O)N1CCN(C3CCC3)CC1)C2 [Compound 643, 2-(2-{2-[2-(4-cyclobutylpiperazin-1-yl)-2-oxoethyl]-1,2,3,4-tetrahydroisoquinolin-6-yl}phenyl)-N,N-dimethylethanamine] | < 1000 |

same assay, conditions: Table II; "*" = Ki in assay of Example 7 less than 1 micromolar

| Structure (SMILES) | Ki [nM] |
| --- | --- |
| O=C(CN1CCc2nc(-c3ccccn3)ncc2C1)N1CCN(C2CCC2)CC1 [Compound 144, 6-[2-(4-cyclobutylpiperazin-1-yl)-2-oxoethyl]-2-pyridin-2-yl-5,6,7,8-tetrahydropyrido[4,3-d]pyrimidine] | < 1000 |
| O=C(CN1CCc2cc(-c3nccs3)ccc2C1)N1CCN(C2CCC2)CC1 [Compound 120, 2-[2-(4-cyclobutylpiperazin-1-yl)-2-oxoethyl]-6-(1,3-thiazol-2-yl)-1,2,3,4-tetrahydroisoquinoline] | < 1000 |
| O=C(CN1CCc2nn(-c3ccc(Cl)nn3)cc2C1)N1CCN(C2CCC2)CC1 [Compound 201, 2-(6-chloropyridazin-3-yl)-5-[2-(4-cyclobutylpiperazin-1-yl)-2-oxoethyl]-4,5,6,7-tetrahydro-2H-pyrazolo[4,3-c]pyridine] | < 1000 |
| O=C(CN1CCc2nc(N3CCOCC3)ccc2C1)N1CCN(C2CCC2)CC1 [Compound 175, 6-[2-(4-cyclobutylpiperazin-1-yl)-2-oxoethyl]-2-morpholin-4-yl-5,6,7,8-tetrahydro-1,6-naphthyridine] | < 1000 |
| CCOC(=O)c1ccc2c(c1)CCN(CC(=O)N1CCN(C3CCC3)CC1)C2 [Compound 86, ethyl 2-[2-(4-cyclobutylpiperazin-1-yl)-2-oxoethyl]-1,2,3,4-tetrahydroisoquinoline-6-carboxylate] | < 1000 |
| CCOC(=O)c1cnc2c(c1)CCN(CC(=O)N1CCN(C3CCC3)CC1)C2 [Compound 116, ethyl 7-[2-(4-cyclobutylpiperazin-1-yl)-2-oxoethyl]-5,6,7,8-tetrahydro-1,7-naphthyridine-3-carboxylate] | < 1000 |
| CC1CCC[C@H]2CN(C(=O)CN3CCc4nc(Cl)sc4C3)CCN12 (stereo in doubt) [Compound 147, 2-[(2-chloro-6,7-dihydro[1,3]thiazolo [5,4-c]pyridin-5(4H)-yl)acetyl]-6-methyloctahydro-2H-pyrido[1,2-a]pyrazine] | < 1000 |
| CC1CCC[C@H]2CN(C(=O)CN3CCc4nc(-c5cncnc5)sc4C3)CCN12 (stereo in doubt) [Compound 150, 6-methyl-2-[(2-pyrimidin-5-yl-6,7-dihydro[1,3]thiazolo [5,4-c]pyridin-5(4H)-yl)acetyl]octahydro-2H-pyrido[1,2-a]pyrazine] | < 1000 |
| O=C(CN1CCc2cn(-c3cccnc3)nc2C1)N1CCN(C2CCC2)CC1 [Compound 123, 6-[2-(4-cyclobutylpiperazin-1-yl)-2-oxoethyl]-2-pyridin-3-yl-4,5,6,7-tetrahydro-2H-pyrazolo[3,4-c]pyridine] | < 1000 |

same assay, conditions: assay of Example 7; "*" in Ki of Table II

| Structure (SMILES) | Ki [nM] |
| --- | --- |
| O=C(CN1CCc2nc(-c3ccc(Cl)c(Cl)c3)sc2C1)N1CCN(C2CCC2)CC1 [Compound 354, 5-[2-(4-cyclobutylpiperazin-1-yl)-2-oxoethyl]-2-(3,4-dichlorophenyl)-4,5,6,7-tetrahydro[1,3]thiazolo [5,4-c]pyridine] | < 1000 |
| CCOC(=O)c1cccc(-c2nc3c(s2)CN(CC(=O)N2CCN(C4CCC4)CC2)CC3)c1 [Compound 376, ethyl 3-{5-[2-(4-cyclobutylpiperazin-1-yl)-2-oxoethyl]-4,5,6,7-tetrahydro[1,3]thiazolo [5,4-c]pyridin-2-yl}benzoate] | < 1000 |
| O=C(CN1CCc2nc(C(F)(F)F)ncc2C1)N1CCN(C2CCC2)CC1 [Compound 292, 6-[2-(4-cyclobutylpiperazin-1-yl)-2-oxoethyl]-2-(trifluoromethyl)-5,6,7,8-tetrahydropyrido[4,3-d]pyrimidine] | < 1000 |
| O=C(CN1CCc2nn(-c3ncc(Br)cn3)cc2C1)N1CCN(C2CCC2)CC1 [Compound 287, 2-(5-bromopyrimidin-2-yl)-5-[2-(4-cyclobutylpiperazin-1-yl)-2-oxoethyl]-4,5,6,7-tetrahydro-2H-pyrazolo[4,3-c]pyridine] | < 1000 |
| CS(=O)(=O)c1cccc(-c2ccc3c(c2)CCN(CC(=O)N2CCN(C4CCCCC4)CC2)C3)c1 [Compound 395, 2-[2-(4-cyclohexylpiperazin-1-yl)-2-oxoethyl]-6-[3-(methylsulfonyl)phenyl]-1,2,3,4-tetrahydroisoquinoline] | < 1000 |
| COc1ccccc1-c1nc2c(s1)CN(CC(=O)N1CCN(C3CCC3)CC1)CC2 [Compound 336, 5-[2-(4-cyclobutylpiperazin-1-yl)-2-oxoethyl]-2-(2-methoxyphenyl)-4,5,6,7-tetrahydro[1,3]thiazolo [5,4-c]pyridine] | < 1000 |
| COc1ccc(-c2nc3c(s2)CN(CC(=O)N2CCN(C4CCC4)CC2)CC3)cc1F [Compound 322, 5-[2-(4-cyclobutylpiperazin-1-yl)-2-oxoethyl]-2-(3-fluoro-4-methoxyphenyl)-4,5,6,7-tetrahydro[1,3]thiazolo [5,4-c]pyridine] | < 1000 |
